Laboratory results published in ChEMBL document CHEMBL4507278 (2021).

Experiments:
[1] = molecular target: Dual specificity mitogen-activated protein kinase kinase 3 (Homo sapiens) (UniProt P46734); settings: Compound concentration 1000.0 nM
[2] = molecular target: Activin receptor type-1-like (Homo sapiens) (UniProt P37023); settings: Compound concentration 1000.0 nM
[3] = molecular target: Serine/threonine-protein kinase 32B (Homo sapiens) (UniProt Q9NY57); settings: Compound concentration 1000.0 nM
[4] = molecular target: Mitogen-activated protein kinase kinase kinase 20 (Homo sapiens) (UniProt Q9NYL2); settings: Compound concentration 1000.0 nM
[5] = molecular target: Muscarinic acetylcholine receptor M4 (Homo sapiens) (UniProt P08173); settings: Compound concentration 10.0 uM
[6] = molecular target: LIM domain kinase 2 (Homo sapiens) (UniProt P53671); settings: Compound concentration 1000.0 nM
[7] = molecular target: Mitogen-activated protein kinase kinase kinase 10 (Homo sapiens) (UniProt Q02779); settings: Compound concentration 1000.0 nM
[8] = molecular target: Myotonin-protein kinase (Homo sapiens) (UniProt Q09013); settings: Compound concentration 1000.0 nM
[9] = molecular target: Phosphatidylinositol 4,5-bisphosphate 3-kinase catalytic subunit gamma isoform (Homo sapiens) (UniProt P48736); settings: Compound concentration 1000.0 nM
[10] = molecular target: Serine/threonine-protein kinase RIO1 (Homo sapiens) (UniProt Q9BRS2); settings: Compound concentration 1000.0 nM
[11] = molecular target: Dual specificity tyrosine-phosphorylation-regulated kinase 1A (Homo sapiens) (UniProt Q13627); settings: Compound concentration 1000.0 nM
[12] = molecular target: Calcium/calmodulin-dependent protein kinase kinase 2 (Homo sapiens) (UniProt Q96RR4); settings: Compound concentration 1000.0 nM
[13] = molecular target: Dual specificity protein kinase TTK (Homo sapiens) (UniProt P33981); settings: Compound concentration 1000.0 nM
[14] = molecular target: Tyrosine-protein kinase Lyn (Homo sapiens) (UniProt P07948); settings: Compound concentration 1000.0 nM
[15] = molecular target: Tyrosine-protein kinase ABL1 (Homo sapiens) (UniProt P00519); settings: Compound concentration 1000.0 nM
[16] = molecular target: Ribosomal protein S6 kinase alpha-1 (Homo sapiens) (UniProt Q15418); settings: Compound concentration 1000.0 nM
[17] = molecular target: Tyrosine-protein kinase receptor TYRO3 (Homo sapiens) (UniProt Q06418); settings: Compound concentration 1000.0 nM
[18] = molecular target: Calcium/calmodulin-dependent protein kinase type II subunit beta (Homo sapiens) (UniProt Q13554); settings: Compound concentration 1000.0 nM
[19] = molecular target: Histamine H2 receptor (Homo sapiens) (UniProt P25021); settings: Compound concentration 10.0 uM
[20] = molecular target: TRAF2 and NCK-interacting protein kinase (Homo sapiens) (UniProt Q9UKE5); settings: Compound concentration 1000.0 nM
[21] = molecular target: MAP kinase-interacting serine/threonine-protein kinase 2 (Homo sapiens) (UniProt Q9HBH9); settings: Compound concentration 1000.0 nM
[22] = molecular target: Dual specificity mitogen-activated protein kinase kinase 2 (Homo sapiens) (UniProt P36507); settings: Compound concentration 1000.0 nM
[23] = molecular target: Ankyrin repeat and protein kinase domain-containing protein 1 (Homo sapiens) (UniProt Q8NFD2); settings: Compound concentration 1000.0 nM
[24] = molecular target: Serine/threonine-protein kinase PAK 4 (Homo sapiens) (UniProt O96013); settings: Compound concentration 1000.0 nM
[25] = molecular target: Proto-oncogene tyrosine-protein kinase ROS (Homo sapiens) (UniProt P08922); settings: Compound concentration 1000.0 nM
[26] = molecular target: Serine/threonine-protein kinase PAK 5 (Homo sapiens) (UniProt Q9P286); settings: Compound concentration 1000.0 nM
[27] = molecular target: Tyrosine-protein kinase Srms (Homo sapiens) (UniProt Q9H3Y6); settings: Compound concentration 1000.0 nM
[28] = molecular target: Cyclin-dependent kinase-like 2 (Homo sapiens) (UniProt Q92772); settings: Compound concentration 1000.0 nM
[29] = molecular target: Calcium/calmodulin-dependent protein kinase type IV (Homo sapiens) (UniProt Q16566); settings: Compound concentration 1000.0 nM
[30] = system: Tyrosine-protein kinase ABL1 (Homo sapiens), P00519 [T315I]; settings: Compound concentration 1000.0 nM
[31] = molecular target: Casein kinase II subunit alpha' (Homo sapiens) (UniProt P19784); settings: Compound concentration 1000.0 nM
[32] = molecular target: Non-receptor tyrosine-protein kinase TYK2 (Homo sapiens) (UniProt P29597); settings: Compound concentration 1000.0 nM
[33] = molecular target: Myosin light chain kinase family member 4 (Homo sapiens) (UniProt Q86YV6); settings: Compound concentration 1000.0 nM
[34] = molecular target: Death-associated protein kinase 1 (Homo sapiens) (UniProt P53355); settings: Compound concentration 1000.0 nM
[35] = molecular target: Muscarinic acetylcholine receptor M5 (Homo sapiens) (UniProt P08912); settings: Compound concentration 10.0 uM
[36] = molecular target: Serine/threonine-protein kinase SIK3 (Homo sapiens) (UniProt Q9Y2K2); settings: Compound concentration 1000.0 nM
[37] = molecular target: Delta-type opioid receptor (Homo sapiens) (UniProt P41143); settings: Compound concentration 10.0 uM
[38] = molecular target: RAF proto-oncogene serine/threonine-protein kinase (Homo sapiens) (UniProt P04049); settings: Compound concentration 1000.0 nM
[39] = molecular target: Tyrosine-protein kinase ABL1 (Homo sapiens) (UniProt P00519); settings: Compound concentration 1000.0 nM; remark: listed apart in the source
[40] = molecular target: Mitogen-activated protein kinase 1 (Homo sapiens) (UniProt P28482); settings: Compound concentration 1000.0 nM
[41] = molecular target: Cyclin-dependent kinase 16 (Homo sapiens) (UniProt Q00536); settings: Compound concentration 1000.0 nM
[42] = molecular target: Dual specificity tyrosine-phosphorylation-regulated kinase 1B (Homo sapiens) (UniProt Q9Y463); settings: Compound concentration 1000.0 nM
[43] = molecular target: Serine/threonine-protein kinase MRCK gamma (Homo sapiens) (UniProt Q6DT37); settings: Compound concentration 1000.0 nM
[44] = molecular target: SRSF protein kinase 3 (Homo sapiens) (UniProt Q9UPE1); settings: Compound concentration 1000.0 nM
[45] = molecular target: Tyrosine-protein kinase receptor Tie-1 (Homo sapiens) (UniProt P35590); settings: Compound concentration 1000.0 nM

Chain of Tyrosine-protein kinase Srms (Homo sapiens) (Q9H3Y6 whole entry): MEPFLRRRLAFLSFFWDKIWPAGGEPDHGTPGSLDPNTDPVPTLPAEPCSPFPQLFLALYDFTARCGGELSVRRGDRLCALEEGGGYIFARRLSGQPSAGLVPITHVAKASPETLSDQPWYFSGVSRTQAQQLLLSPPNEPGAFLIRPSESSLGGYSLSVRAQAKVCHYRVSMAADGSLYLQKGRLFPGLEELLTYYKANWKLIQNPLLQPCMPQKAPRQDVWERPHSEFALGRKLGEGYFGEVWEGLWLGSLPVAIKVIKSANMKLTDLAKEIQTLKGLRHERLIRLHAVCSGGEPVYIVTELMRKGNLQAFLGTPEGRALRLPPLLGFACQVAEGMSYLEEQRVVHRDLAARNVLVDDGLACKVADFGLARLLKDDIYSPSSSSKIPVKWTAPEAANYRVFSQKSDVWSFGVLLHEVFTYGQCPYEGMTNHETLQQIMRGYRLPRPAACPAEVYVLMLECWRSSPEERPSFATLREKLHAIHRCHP
Chain of Non-receptor tyrosine-protein kinase TYK2 (Homo sapiens) (P29597 whole entry): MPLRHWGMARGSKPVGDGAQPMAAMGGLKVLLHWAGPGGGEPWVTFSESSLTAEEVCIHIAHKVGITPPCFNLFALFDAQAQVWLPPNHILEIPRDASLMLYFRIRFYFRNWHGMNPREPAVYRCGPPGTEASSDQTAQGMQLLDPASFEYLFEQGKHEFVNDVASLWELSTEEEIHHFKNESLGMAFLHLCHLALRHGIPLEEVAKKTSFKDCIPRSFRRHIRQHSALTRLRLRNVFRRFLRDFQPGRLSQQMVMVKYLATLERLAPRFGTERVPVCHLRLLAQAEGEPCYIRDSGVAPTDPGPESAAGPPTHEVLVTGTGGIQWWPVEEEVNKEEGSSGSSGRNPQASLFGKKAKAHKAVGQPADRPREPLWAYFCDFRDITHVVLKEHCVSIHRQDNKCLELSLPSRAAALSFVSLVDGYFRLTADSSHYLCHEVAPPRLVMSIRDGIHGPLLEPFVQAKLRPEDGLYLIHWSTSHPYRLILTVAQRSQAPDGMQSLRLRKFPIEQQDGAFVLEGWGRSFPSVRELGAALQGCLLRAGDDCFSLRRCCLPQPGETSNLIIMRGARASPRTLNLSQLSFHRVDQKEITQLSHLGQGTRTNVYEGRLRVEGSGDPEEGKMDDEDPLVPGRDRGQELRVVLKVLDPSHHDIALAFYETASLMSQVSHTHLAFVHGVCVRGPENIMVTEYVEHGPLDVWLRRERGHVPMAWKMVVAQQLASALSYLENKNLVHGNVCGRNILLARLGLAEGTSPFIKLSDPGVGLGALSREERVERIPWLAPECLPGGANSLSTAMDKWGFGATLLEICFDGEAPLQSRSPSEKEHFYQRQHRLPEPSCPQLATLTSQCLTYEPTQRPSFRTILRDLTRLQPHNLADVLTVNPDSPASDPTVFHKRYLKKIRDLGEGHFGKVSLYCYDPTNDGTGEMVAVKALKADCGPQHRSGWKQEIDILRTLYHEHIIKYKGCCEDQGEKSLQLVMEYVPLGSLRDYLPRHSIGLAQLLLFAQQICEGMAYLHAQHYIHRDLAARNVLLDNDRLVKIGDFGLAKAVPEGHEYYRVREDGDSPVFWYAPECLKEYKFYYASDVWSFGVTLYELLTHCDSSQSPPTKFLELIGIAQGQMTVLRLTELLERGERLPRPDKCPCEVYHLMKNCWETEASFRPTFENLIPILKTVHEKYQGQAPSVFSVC
Chain of Serine/threonine-protein kinase SIK3 (Homo sapiens) (Q9Y2K2 whole entry, looked up): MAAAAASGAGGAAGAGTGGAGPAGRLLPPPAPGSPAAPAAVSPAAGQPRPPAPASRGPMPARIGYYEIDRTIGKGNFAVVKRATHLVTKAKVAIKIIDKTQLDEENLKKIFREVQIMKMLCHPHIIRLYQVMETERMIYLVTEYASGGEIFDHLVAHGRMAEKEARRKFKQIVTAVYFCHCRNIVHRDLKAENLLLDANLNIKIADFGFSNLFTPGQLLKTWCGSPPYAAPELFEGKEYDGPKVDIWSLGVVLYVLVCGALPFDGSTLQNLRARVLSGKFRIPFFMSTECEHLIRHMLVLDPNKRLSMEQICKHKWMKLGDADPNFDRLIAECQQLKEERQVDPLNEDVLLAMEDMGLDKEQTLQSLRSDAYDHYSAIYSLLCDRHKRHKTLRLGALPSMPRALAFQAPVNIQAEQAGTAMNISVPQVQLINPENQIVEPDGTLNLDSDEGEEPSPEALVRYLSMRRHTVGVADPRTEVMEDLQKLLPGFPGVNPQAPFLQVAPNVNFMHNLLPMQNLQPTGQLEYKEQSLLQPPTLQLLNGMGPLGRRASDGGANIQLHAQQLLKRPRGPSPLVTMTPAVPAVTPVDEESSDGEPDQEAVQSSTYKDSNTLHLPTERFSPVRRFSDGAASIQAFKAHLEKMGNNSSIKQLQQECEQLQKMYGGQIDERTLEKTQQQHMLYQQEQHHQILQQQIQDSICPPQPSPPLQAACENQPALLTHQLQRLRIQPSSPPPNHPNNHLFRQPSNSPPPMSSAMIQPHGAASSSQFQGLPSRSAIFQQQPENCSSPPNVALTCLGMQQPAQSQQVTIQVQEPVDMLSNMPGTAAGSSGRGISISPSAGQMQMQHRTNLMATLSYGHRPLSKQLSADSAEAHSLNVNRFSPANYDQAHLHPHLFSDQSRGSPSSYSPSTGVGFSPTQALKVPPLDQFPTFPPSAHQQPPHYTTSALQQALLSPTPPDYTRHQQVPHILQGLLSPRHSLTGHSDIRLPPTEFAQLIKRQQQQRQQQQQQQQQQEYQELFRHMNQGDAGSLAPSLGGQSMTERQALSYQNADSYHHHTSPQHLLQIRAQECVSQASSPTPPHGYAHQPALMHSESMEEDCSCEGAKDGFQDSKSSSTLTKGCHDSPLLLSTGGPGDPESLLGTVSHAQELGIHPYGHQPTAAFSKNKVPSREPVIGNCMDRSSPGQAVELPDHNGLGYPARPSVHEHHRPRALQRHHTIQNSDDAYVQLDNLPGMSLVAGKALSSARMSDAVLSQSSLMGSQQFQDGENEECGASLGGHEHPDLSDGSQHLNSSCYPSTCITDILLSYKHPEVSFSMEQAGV
Chain of Death-associated protein kinase 1 (Homo sapiens) (P53355 whole entry, looked up): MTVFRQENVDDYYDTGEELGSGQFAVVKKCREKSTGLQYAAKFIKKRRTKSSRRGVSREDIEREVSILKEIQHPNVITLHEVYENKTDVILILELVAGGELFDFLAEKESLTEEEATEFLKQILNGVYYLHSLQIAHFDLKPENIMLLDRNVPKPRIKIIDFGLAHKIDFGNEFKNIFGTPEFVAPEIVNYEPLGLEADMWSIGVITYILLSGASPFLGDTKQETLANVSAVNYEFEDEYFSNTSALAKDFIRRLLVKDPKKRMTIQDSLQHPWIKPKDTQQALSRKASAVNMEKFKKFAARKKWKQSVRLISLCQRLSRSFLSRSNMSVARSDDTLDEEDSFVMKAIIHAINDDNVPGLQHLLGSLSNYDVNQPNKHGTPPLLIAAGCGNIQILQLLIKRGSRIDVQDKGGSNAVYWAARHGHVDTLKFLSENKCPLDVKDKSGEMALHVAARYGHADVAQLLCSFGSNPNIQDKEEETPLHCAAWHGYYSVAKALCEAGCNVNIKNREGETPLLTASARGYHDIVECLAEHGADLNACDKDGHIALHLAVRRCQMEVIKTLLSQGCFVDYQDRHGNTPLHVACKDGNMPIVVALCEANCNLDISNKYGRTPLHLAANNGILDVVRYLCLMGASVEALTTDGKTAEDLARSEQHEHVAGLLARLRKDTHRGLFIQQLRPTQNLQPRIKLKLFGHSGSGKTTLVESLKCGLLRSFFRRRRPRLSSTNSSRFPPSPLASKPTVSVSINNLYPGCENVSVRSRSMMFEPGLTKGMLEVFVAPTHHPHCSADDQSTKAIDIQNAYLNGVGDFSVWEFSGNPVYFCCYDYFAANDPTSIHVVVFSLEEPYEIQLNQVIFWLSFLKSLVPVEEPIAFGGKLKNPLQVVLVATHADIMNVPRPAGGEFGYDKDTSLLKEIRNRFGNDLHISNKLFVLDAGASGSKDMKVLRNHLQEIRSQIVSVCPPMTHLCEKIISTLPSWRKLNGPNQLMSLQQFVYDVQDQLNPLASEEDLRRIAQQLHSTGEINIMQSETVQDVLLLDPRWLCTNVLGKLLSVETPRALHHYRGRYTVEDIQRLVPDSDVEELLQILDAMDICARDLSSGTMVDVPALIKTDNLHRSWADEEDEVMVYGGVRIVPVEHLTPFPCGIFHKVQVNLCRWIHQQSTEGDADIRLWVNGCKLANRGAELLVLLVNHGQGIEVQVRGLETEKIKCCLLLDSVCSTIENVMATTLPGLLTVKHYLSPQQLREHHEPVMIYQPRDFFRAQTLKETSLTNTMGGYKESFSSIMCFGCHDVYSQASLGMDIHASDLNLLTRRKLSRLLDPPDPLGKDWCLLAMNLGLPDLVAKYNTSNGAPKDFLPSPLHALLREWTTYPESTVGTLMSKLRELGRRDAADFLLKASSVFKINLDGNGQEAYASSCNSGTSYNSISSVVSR
Chain of Muscarinic acetylcholine receptor M4 (Homo sapiens) (P08173 whole entry, the tested form may be a part): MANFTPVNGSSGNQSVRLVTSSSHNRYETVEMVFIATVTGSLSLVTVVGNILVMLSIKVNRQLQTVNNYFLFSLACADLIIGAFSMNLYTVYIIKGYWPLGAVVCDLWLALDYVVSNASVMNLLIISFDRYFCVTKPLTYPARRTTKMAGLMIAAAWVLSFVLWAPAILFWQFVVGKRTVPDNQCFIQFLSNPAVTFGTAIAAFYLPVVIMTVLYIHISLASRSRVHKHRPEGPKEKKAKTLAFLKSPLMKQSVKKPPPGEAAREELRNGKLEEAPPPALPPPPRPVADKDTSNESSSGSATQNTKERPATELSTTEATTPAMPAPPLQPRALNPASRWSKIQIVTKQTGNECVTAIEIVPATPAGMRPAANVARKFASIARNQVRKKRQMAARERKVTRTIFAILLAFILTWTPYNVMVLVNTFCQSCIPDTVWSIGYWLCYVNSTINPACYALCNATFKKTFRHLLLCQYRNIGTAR

CS(=O)(=O)NCC[C@H](NC(=O)c1cncc2c1cnn2-c1ccc(F)cc1)c1ccnc(S(C)(=O)=O)c1 [BI 9307]
inactive: residual activity [1] 100% | residual activity [2] 96% | residual activity [3] 67% | residual activity [4] 88% | inhibition [5] 10.8% | residual activity [6] 100% | residual activity [7] 75% | residual activity [8] 100% | residual activity [9] 80% | residual activity [10] 85% | residual activity [11] 100% | residual activity [12] 100% | residual activity [13] 91% | residual activity [14] 100% | residual activity [15] 100% | residual activity [16] 100% | residual activity [17] 94% | residual activity [18] 100% | inhibition [19] 2.46% | residual activity [20] 100% | residual activity [21] 100% | residual activity [22] 100% | residual activity [23] 100% | residual activity [24] 100% | residual activity [25] 94% | residual activity [26] 99% | residual activity [27] 83% | residual activity [28] 100% | residual activity [29] 100% | residual activity [30] 93% | residual activity [31] 100% | residual activity [32] 100% | residual activity [33] 100% | residual activity [34] 100% | inhibition [35] 5.99% | residual activity [36] 98% | inhibition [37] -2.19% | residual activity [38] 76% | residual activity [39] 90% | residual activity [40] 100% | residual activity [41] 100% | residual activity [42] 100% | residual activity [43] 100% | residual activity [44] 100% | residual activity [45] 100%

CS(=O)(=O)c1cc(C2(NC(=O)c3cncc4c3cnn4-c3ccc(F)cc3)CC2)ccn1 [BI 639667]
inactive: residual activity [1] 88% | residual activity [2] 100% | residual activity [3] 100% | residual activity [4] 86% | inhibition [5] 13.3% | residual activity [6] 100% | residual activity [7] 99% | residual activity [8] 99% | residual activity [9] 82% | residual activity [10] 80% | residual activity [11] 81% | residual activity [12] 75% | residual activity [13] 90% | residual activity [14] 100% | residual activity [15] 71% | residual activity [16] 77% | residual activity [17] 91% | residual activity [18] 100% | inhibition [19] 3.34% | residual activity [20] 95% | residual activity [21] 100% | residual activity [22] 80% | residual activity [23] 96% | residual activity [24] 100% | residual activity [25] 100% | residual activity [26] 100% | residual activity [27] 86% | residual activity [28] 100% | residual activity [29] 100% | residual activity [30] 75% | residual activity [31] 80% | residual activity [32] 100% | residual activity [33] 85% | residual activity [34] 83% | inhibition [35] 3.92% | residual activity [36] 81% | inhibition [37] -5.92% | residual activity [38] 100% | residual activity [39] 86% | residual activity [40] 94% | residual activity [41] 94% | residual activity [42] 74% | residual activity [43] 100% | residual activity [44] 100% | residual activity [45] 73%
